Several values for one entry are separate records, joined by “and”; a condition that tells them apart may be missing. Equal values may be shown once.
Tests used:
MRGPRX4 (S83) = biological target: T1, MRGPRX4 (S83) (Homo sapiens, UniProt Q96LA9, L83S); assay: EC50 determination, intracellular calcium mobilization in MRGPRX4 stably expressed HEK293 cells (FLIPR Calcium 5, Flexstation-3); type: cell-based; design: Fig. 1D dose-response, calcium mobilization response (individual replicate) / calcium mobilization response (Fig. 1D dose-response raw data): unit not given here; conditions: individual replicate values, listed as Phenytoin Sodium; for Fig. 1D dose-response, calcium response at Concentration (M): phenytoin series
T1 construct: expressed in transfected cells
T1 sequence (Q96LA9 whole entry L83S): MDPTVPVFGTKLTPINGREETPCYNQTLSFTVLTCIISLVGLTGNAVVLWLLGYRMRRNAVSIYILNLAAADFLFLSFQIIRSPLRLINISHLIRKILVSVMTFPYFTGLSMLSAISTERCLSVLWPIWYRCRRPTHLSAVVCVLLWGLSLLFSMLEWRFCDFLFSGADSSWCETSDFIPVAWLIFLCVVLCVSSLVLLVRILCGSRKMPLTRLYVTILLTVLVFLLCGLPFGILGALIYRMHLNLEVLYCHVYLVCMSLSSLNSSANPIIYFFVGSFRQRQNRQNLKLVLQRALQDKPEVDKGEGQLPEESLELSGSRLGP
Outline: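 HEK293 cells stably expressing receptor (parental HEK293 alongside) loaded with Calcium 5 dye in HBSS/20 mM HEPES, pH 7.4, 1 h at 37 °C, then compounds added. Response = peak minus pre-drug baseline, triplicates averaged; EC50 from 4PL fit.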

NP2-WT mice = assay: Itch behavioral study (scratching bouts after subcutaneous nape injection) in littermate control NP2-WT mice; type: in vivo; conditions: 30 min after injection of 50 μl 10 mM into the nape, each cell one mouse
[1] = test system: NP2-X4+ mice (MRGPRX4 in Mrgpra3+ NP2 sensory neurons); assay: Itch behavioral study (scratching bouts after subcutaneous nape injection) in NP2-X4+ mice; type: in vivo, mouse
MRGPRX4 WT (S83) = MRGPRX4 WT (S83) (Homo sapiens, UniProt Q96LA9, L83S); assay: PRESTO-Tango β-arrestin recruitment assay, HTLA cells stably expressing WT (S83) MRGPRX4; type: cell-based; design: expressed in transfected cells; conditions: HTLA::MRGPRX4
Sequence of MRGPRX4 WT (S83) (Q96LA9 whole entry L83S): as above

[2] = IV, clinical trials; ref New Drug Application: 020450; cited from earlier work

- Fig. 1D dose-response, calcium response at Concentration (M) (MRGPRX4 (S83); 4.88281e-7 M): -45.834 and -46.962 and -43.233
- Fig. 1D dose-response, calcium response at Concentration (M) (MRGPRX4 (S83); 9.76563e-7 M): -42.023 and -51.874 and -41.78
- Fig. 1D dose-response, calcium response at Concentration (M) (MRGPRX4 (S83); 1.95313e-6 M): -57.631 and -43.259 and -52.591
- Fig. 1D dose-response, calcium response at Concentration (M) (MRGPRX4 (S83); 3.90625e-6 M): -30.902 and -51.949 and -54.701
- Fig. 1D dose-response, calcium response at Concentration (M) (MRGPRX4 (S83); 7.8125e-6 M): -36.341 and -24.025 and -23.478
- Fig. 1D dose-response, calcium response at Concentration (M) (MRGPRX4 (S83); 1.5625e-5 M): -24.49 and -31.993 and -24.486
- Fig. 1D dose-response, calcium response at Concentration (M) (MRGPRX4 (S83); 3.125e-5 M): -42.34 and -14.448 and -21.073
- Fig. 1D dose-response, calcium response at Concentration (M) (MRGPRX4 (S83); 6.25e-5 M): -29.178 and -38.728 and -12.364
- Fig. 1D dose-response, calcium response at Concentration (M) (MRGPRX4 (S83); 0.00025 M): 21.7467 and 26.6867 and 14.9677
- Fig. 1D dose-response, calcium response at Concentration (M) (MRGPRX4 (S83); 0.0005 M): -0.1003 and 34.5457 and 1.141
Structure (SMILES): O=C1NC(=O)C(c2ccccc2)(c2ccccc2)N1 [Phenytoin]
- calcium mobilization response (Fig. 1D dose-response raw data) (MRGPRX4 (S83); concentration 4.88281e-7 M): -35.967 and -38.387 and -9.249 and -43.815 and -12.548 and -27.242
- calcium mobilization response (Fig. 1D dose-response raw data) (MRGPRX4 (S83); concentration 9.76563e-7 M): -3.6717 and 0.5703 and -1.3847 and -25.061 and -39.258 and -5.762
- calcium mobilization response (Fig. 1D dose-response raw data) (MRGPRX4 (S83); concentration 1.95313e-6 M): -0.8477 and -0.3367 and -2.8407 and -17.925 and -29.096 and -31.733
- calcium mobilization response (Fig. 1D dose-response raw data) (MRGPRX4 (S83); concentration 3.90625e-6 M): -4.2817 and -4.6827 and 7.036 and -45.513 and -21.585 and -2.642
- calcium mobilization response (Fig. 1D dose-response raw data) (MRGPRX4 (S83); concentration 7.8125e-6 M): -6.1147 and -5.4597 and 3.666 and -0.809 and -24.700 and -20.368
- calcium mobilization response (Fig. 1D dose-response raw data) (MRGPRX4 (S83); concentration 1.5625e-5 M): -2.1987 and 5.167 and -0.3347 and -19.624 and -8.530 and -11.014
- calcium mobilization response (Fig. 1D dose-response raw data) (MRGPRX4 (S83); concentration 3.125e-5 M): -5.0347 and -1.5897 and 2.935 and -19.576 and -12.591 and -8.608
- calcium mobilization response (Fig. 1D dose-response raw data) (MRGPRX4 (S83); concentration 6.25e-5 M): 13.7733 and 12.6223 and 5.79 and -9.327 and -10.716 and -3.999
- calcium mobilization response (Fig. 1D dose-response raw data) (MRGPRX4 (S83); concentration 0.00025 M): 17.3763 and 20.0503 and 26.8243 and 17.981 and 21.189 and 24.656
- calcium mobilization response (Fig. 1D dose-response raw data) (MRGPRX4 (S83); concentration 0.0005 M): 40.1453 and 34.4913 and 26.1333 and 33.840 and 5.994 and 28.344
- Scratching bouts of individual animals (NP2-WT mice): 7 (2×) and 14 and 1 and 11 and 59 and 2 and 5 and 42 and 24
- Scratching / itch behavior, NP2-X4+ mice vs WT littermates ([1]; 50 μl 10 mM nape injection, 30 min): no differences in itch behavior were detected
- Scratching bouts of individual animals ([1]; NP2-X4+, 30 min after injection of 50 μl 10 mM into the nape, each cell one mouse): 6 and 0 and 19 and 1 (2×) and 14 and 16 and 21 and 12 and 20
- PRESTO-Tango response (fig. S1), single replicate (MRGPRX4 WT (S83); concentration 4.88281e-6 M): 0.1853 and 0.188 and 0.1763 and 0.05734 and 0.2683 and 0.2239
- PRESTO-Tango response (fig. S1), single replicate (MRGPRX4 WT (S83); concentration 9.76563e-6 M): 0.2008 and 0.1594 and 0.1746 and 0.2158 and 0.02233 and 0.2967
- PRESTO-Tango response (fig. S1), single replicate (MRGPRX4 WT (S83); concentration 1.95313e-5 M): 0.2906 and 0.2732 and 0.1192 and 0.006784 and 0.3171 and 0.3592
- PRESTO-Tango response (fig. S1), single replicate (MRGPRX4 WT (S83); concentration 3.90625e-5 M): 0.1519 and 0.183 and 0.2178 and 0.1316 and 0.1884 and 0.2326
- PRESTO-Tango response (fig. S1), single replicate (MRGPRX4 WT (S83); concentration 7.8125e-5 M): 0.1378 and 0.1891 and 0.1982 and 0.232 and 0.1107 and 0.1825
- PRESTO-Tango response (fig. S1), single replicate (MRGPRX4 WT (S83); concentration 0.0003125 M): 0.1547 and 0.2414 and 0.1479 and 0.03891 and 0.4024 and 0.1026
- PRESTO-Tango response (fig. S1), single replicate (MRGPRX4 WT (S83); concentration 0.000625 M): 0.1541 and 0.14 and 0.1288 and 0.1405 and 0.1553 and 0.127
- PRESTO-Tango response (fig. S1), single replicate (MRGPRX4 WT (S83); concentration 0.0025 M): 0.1159 and 0.09904 and 0.1083 and 0.002223 and 0.1612 and 0.1598
- PRESTO-Tango response (fig. S1), single replicate (MRGPRX4 WT (S83); concentration 0.005 M): 0.112 and 0.09938 and 0.09678 and 0.03875 and 0.1733 and 0.09617
- Patients who reported itch [2]: 4.5%

Reference: PMC11645656, “MRGPRX4 mediates phospho-drug associated pruritus in a humanized mouse model” (Science translational medicine, 2024)
